Broadly, the pEC50 is the EC50 on a negative log10 scale, so that one unit is a factor of ten. Low values mean a large EC50, high ones a small EC50.

Each structure is given as a SMILES string. pEC50: −log10 of the molar value. *1 amine or outer side, *2 acyl side, *3 side chain or, on linkers, in order; H or OH if unused. Where a SMILES comes first, the peptide text is derived from it. Bridges are numbered along the chain shown (N, C = ends). [ ]: non-standard residue; d: D form. Phe(4-guanidino) = N=C(N)Nc1ccc(C[C@H](N)C(=O)O)cc1; Ala(pyrimidin-5-yl) = N[C@@H](Cc1cncnc1)C(=O)O; Gly(N-(CH2)3-guanidino) = N=C(N)NCCCNCC(=O)O; X36 = CN([C@@H](Cc1cnn(C)c1)C(=O)[*:2])[*:1]; NMe3Pal(5-F) = CN[C@@H](Cc1cncc(F)c1)C(=O)O; NMePhe(3-Me) = CN[C@@H](Cc1cccc(C)c1)C(=O)O; Phe(4-CH2NH2) = NCc1ccc(C[C@H](N)C(=O)O)cc1; NMePhe(3-F) = CN[C@@H](Cc1cccc(F)c1)C(=O)O; X25 = O=C([C@H](Cc1ccc(F)nc1)N[*:1])[*:2]; NMeArg(Me) = CNC(=N)NCCC[C@H](NC)C(=O)O; X46 = O=C([C@H](Cc1cccnc1F)N[*:1])[*:2]; 1Nal = N[C@@H](Cc1cccc2ccccc12)C(=O)O; Phe(2-F) = N[C@@H](Cc1ccccc1F)C(=O)O; X31 = O=C([C@H](CCC1CC1)N[*:1])[*:2]; Abu(4,4-F2) = N[C@@H](CC(F)F)C(=O)O; NMe3Pal = CN[C@@H](Cc1cccnc1)C(=O)O; NMeY = CN[C@@H](Cc1ccc(O)cc1)C(=O)O; X1 = O=C(C12CC(CN[*:1])(C1)C2)[*:2]; NMeAad = CN[C@@H](CCCC(=O)O)C(=O)O; Ala(cPr) = N[C@@H](CC1CC1)C(=O)O; NMeF = CN[C@@H](Cc1ccccc1)C(=O)O; PhLac = O=C(O)[C@@H](O)Cc1ccccc1; 3Pal = N[C@@H](Cc1cccnc1)C(=O)O; d(αMeC) = C[C@@](N)(CS)C(=O)O; Ahp(2) = CCCCC[C@H](N)C(=O)O; Cba = N[C@@H](CC1CCC1)C(=O)O; hLeu = CC(C)CC[C@H](N)C(=O)O; NMeS = CN[C@@H](CO)C(=O)O; αMeC = C[C@](N)(CS)C(=O)O; NMeA = CN[C@@H](C)C(=O)O; Nle = CCCC[C@H](N)C(=O)O

In the test the target is phosphorylation levels of ERK1/2 in AsPC-1 (homozygous KRAS-G12D) cells (Homo sapiens, UniProt P01116, G12D). Put plainly: Cellular phospho-ERK assay in AsPC-1 cells (Alpha Screen), assay medium without fetal bovine serum.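 Also: signal taken as phospho-ERK over total ERK per well, both detected in one multiplex bead assay, EC50 from four-parameter logistic fit of dose-response curves.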 In kind it is cell-based. To be noted: phospho-ERK AlphaScreen, 18 h. On the technique in general: Alpha assays give light when donor and acceptor beads are brought close together.
Sequence of phosphorylation levels of ERK1/2 in AsPC-1 (homozygous KRAS-G12D) cells (P01116 1-186 G12D): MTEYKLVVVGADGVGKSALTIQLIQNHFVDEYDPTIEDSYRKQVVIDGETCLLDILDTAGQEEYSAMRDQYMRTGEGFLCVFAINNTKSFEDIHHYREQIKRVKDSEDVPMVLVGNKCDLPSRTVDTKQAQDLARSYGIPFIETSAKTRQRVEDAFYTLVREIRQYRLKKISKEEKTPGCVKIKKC
Description: Assay plate was incubated at 37° C. 5% CO2 for the indicated length of time. […] Phosphorylated ERK and total ERK levels were detected by Alpha SureFire Ultra Multiplex pERK kit (PerkinElmer MPSU-PTERK) using 5 μL, acceptor bead mix and 5 μL donor bead mix, both prepared following the manufacturer's protocol. Plates were sealed using aluminum sealing tape (Costar 07-200-683) during incubation at ambient temperature with constant shaking at 300 rpm for 1 h (both acceptor and donor). Assay plates were read on a Envision Xcite Multilabel Reader (PerkinElmer 1040900) at ambient temperature, with emission at 535 nm (Total ERK) and emission at 615 nm (Phospho ERK). Ratio of pERK vs total ERK in each well was used as the final readout. Dose response curves and EC50 were analyzed using a 4-parameter logistic equation in GraphPad Prism software.
Regarding `CCCC[C@@H]1NC(=O)[C@H](Cc2cccnc2)NC(=O)[C@H](C)N(C)C(=O)[C@H](Cc2ccccc2)OC(=O)C23CC(CNC(=O)[C@H](Cc4cnn(C)c4)N(C)C(=O)[C@H](CCCC)NC(=O)[C@H](Cc4ccccc4F)NC1=O)(C2)C3` [compound 403, cyclo(FLac-NMeA-3Pal-Nle-Phe2F-Nle-NMeAla4PyzlMe-amBCP)] (cyclo([3Pal][Nle][Phe(2-F)][Nle][X36][X1][PhLac][NMeA])), the pEC50 was 4.73.

In turn, `CCCC[C@@H]1NC(=O)[C@H](Cc2ccc(O)cc2)NC(=O)[C@H](CC2CCCCC2)NC(=O)[C@H](CCCCN)NC(=O)[C@H](CCCNC(=N)N)NC(=O)[C@H](Cc2cccc3ccccc23)NC(=O)CSC[C@H](C(N)=O)NC(=O)[C@H](Cc2ccccc2)N(C)C1=O` [compound 139, cyclo(INal-R-K-Cha-Y-Nle-NMeF-dCl-ClAc)] gave a pEC50 below 4.29.

In turn, `CCCC[C@@H]1NC(=O)[C@H](Cc2ccc(C(F)(F)F)nc2)NC(=O)[C@H](CCCn2ccnc2)N(C)C(=O)[C@H](Cc2ccccc2)OC(=O)C23CC(CNC(=O)[C@H](Cc4ccccc4)N(C)C(=O)[C@H](CCCC)NC(=O)[C@H](Cc4ccccc4F)NC1=O)(C2)C3` (single isomer, unassigned) [compound 219, cyclo(FLac-NMeNvaImid-4CF33Pal-Nle-Phe2F-Nle-NMeF-amBCP)] showed a pEC50 below 4.29.

Turning to `CCCC[C@@H]1NC(=O)[C@H](Cc2ccc(F)nc2)NC(=O)[C@H](C)N(C)C(=O)[C@H](Cc2ccccc2)OC(=O)C23CC(CNC(=O)[C@H](Cc4ccccc4)N(C)C(=O)[C@H](CCCC)NC(=O)[C@H](Cc4ccccc4F)NC1=O)(C2)C3` [compound 231, cyclo(FLac-NMeA-4F3Pal-Nle-Phe2F-Nle-NMeF-amBCP)] (cyclo([NMeA][X25][Nle][Phe(2-F)][Nle][NMeF][X1][PhLac])), the pEC50 was 6.23.

Regarding `CC(C)CC[C@@H]1NC(=O)[C@H](Cc2cccnc2F)NC(=O)[C@H](CC2CC2)NC(=O)[C@H](Cc2cncnc2)NC(=O)[C@H](C)N(C)C(=O)[C@H](Cc2ccccc2)OC(=O)C23CC(CNC(=O)[C@H](Cc4ccccc4)N(C)C1=O)(C2)C3` [compound 215, cyclo(FLac-NMeA-PyrimAla-cPrA-3Pal2F-hL-NMeF-amBCP)] (cyclo([Ala(cPr)][X46][hLeu][NMeF][X1][PhLac][NMeA][Ala(pyrimidin-5-yl)])), the pEC50 was 5.38.

The molecule `CCCCC[C@@H]1NC(=O)[C@H](Cc2ccc(OC)cc2)NC(=O)[C@H](CC2CCC2)NC(=O)[C@H](Cc2ccc(NC(=N)N)cc2)NC(=O)CN(CCCNC(=N)N)C(=O)[C@H](Cc2ccccc2)NC(=O)CSC[C@@](C)(C(N)=O)NC(=O)[C@H](Cc2ccccc2)N(C)C1=O` [compound 361, cyclo(F-NGnG-Phe4Gn-cBuA-TyrOMe-Ahp-NMeF-aMeCl-ClAc)] ({CH2CO}-F[Gly(N-(CH2)3-guanidino)][Phe(4-guanidino)][Cba]Y(Me)[Ahp(2)][NMeF][αMeC]-NH2; thioether N-8) showed a pEC50 of 4.40.

The molecule `CCCCC[C@@H]1NC(=O)[C@H](Cc2ccc(OC)cc2)NC(=O)[C@H](CC2CCC2)NC(=O)[C@H](Cc2ccc(NC(=N)N)cc2)NC(=O)[C@H](CCCNC(=N)NC)N(C)C(=O)[C@H](Cc2ccccc2)NC(=O)CSC[C@@](C)(C(N)=O)NC(=O)[C@H](Cc2ccccc2)N(C)C1=O` [compound 380, cyclo(F-NMeArgMe-Phe4Gn-cBuA-TyrOMe-Abp-NMeF-aMeCl-ClAc)] ({CH2CO}-F[NMeArg(Me)][Phe(4-guanidino)][Cba]Y(Me)[Ahp(2)][NMeF][αMeC]-NH2; thioether N-8) gave a pEC50 below 4.29.

`CCCC[C@@H]1NC(=O)[C@H](Cc2ccc(CN)cc2)NC(=O)[C@H](CCCNC(=N)N)NC(=O)[C@H](Cc2cccc3ccccc23)NC(=O)CSC[C@](C)(C(=O)O)NC(=O)[C@H](Cc2ccccc2)N(C)C(=O)[C@H](CCCC)NC(=O)[C@H](Cc2ccc(O)cc2)NC1=O` [compound 144, cyclo(1Nal-R-Phe4CH2NH2-Nle-Y-Nle-NMeF-daMeC-ClAc)] ({CH2CO}-[1Nal]R[Phe(4-CH2NH2)][Nle]Y[Nle][NMeF][d(αMeC)]-OH; thioether N-8) gave a pEC50 below 4.29.

Molecule `CCCC[C@@H]1NC(=O)[C@H](Cc2cncnc2)NC(=O)[C@H](CO)N(C)C(=O)[C@H](Cc2ccccc2)OC(=O)C23CC(CNC(=O)[C@H](Cc4cccnc4)N(C)C(=O)[C@H](CCCC)NC(=O)[C@H](Cc4ccccc4F)NC1=O)(C2)C3` [compound 119, cyclo(FLac-NMeS-PyrimAla-Nle-Phe2F-Nle-NMe3Pal-amBCP)] (cyclo([NMe3Pal][X1][PhLac][NMeS][Ala(pyrimidin-5-yl)][Nle][Phe(2-F)][Nle])) had a pEC50 below 4.29.

As for `Cc1cccc(C[C@H]2C(=O)NCC34CC(C3)(C4)C(=O)O[C@@H](Cc3ccccc3)C(=O)N(C)[C@@H](C)C(=O)N[C@@H](Cc3cncnc3)C(=O)N[C@@H](CC3CC3)C(=O)N[C@@H](Cc3ccccc3F)C(=O)N[C@@H](CCC3CC3)C(=O)N2C)c1` [compound 334, cyclo(FLac-NMeA-PyrimAla-cPrA-Phe2F-hcPrA-NMePhe3Me-amBCP)] (cyclo([Ala(cPr)][Phe(2-F)][X31][NMePhe(3-Me)][X1][PhLac][NMeA][Ala(pyrimidin-5-yl)])), the pEC50 is 6.65.

Molecule `CCCC[C@@H]1NC(=O)[C@H](Cc2cncnc2)NC(=O)[C@H](C)N(C)C(=O)[C@H](Cc2ccccc2)OC(=O)C23CC(CNC(=O)[C@H](Cc4ccc(OC)cc4)N(C)C(=O)[C@H](CCCC)NC(=O)[C@H](Cc4ccccc4F)NC1=O)(C2)C3` [compound 175, cyclo(FLac-NMeA-PyrimAla-Nle-Phe2F-Nle-NMeYOMe-amBCP)] (cyclo([NMeA][Ala(pyrimidin-5-yl)][Nle][Phe(2-F)][Nle][NMeY](Me)[X1][PhLac])) showed a negative logarithm of the EC50 (pEC50) of 6.36.

Regarding `CCCC[C@@H]1NC(=O)[C@H](Cc2cccnc2)NC(=O)[C@H](C)N(C)C(=O)[C@H](Cc2ccccc2)OC(=O)C23CC(CNC(=O)[C@H](Cc4cccnc4)N(C)C(=O)[C@H](CCCC)NC(=O)[C@H](Cc4ccccc4F)NC1=O)(C2)C3` [compound 244, cyclo(FLac-NMeA-3Pal-Nle-Phe2F-Nle-NMe3Pal-amBCP)] (cyclo([3Pal][Nle][Phe(2-F)][Nle][NMe3Pal][X1][PhLac][NMeA])), the pEC50 was 5.14.

Consider `CC(C)CC[C@@H]1NC(=O)[C@H](Cc2ccccc2F)NC(=O)[C@H](CC(F)F)NC(=O)[C@H](Cc2cncnc2)NC(=O)[C@H](C)N(C)C(=O)[C@H](Cc2ccccc2)OC(=O)C23CC(CNC(=O)[C@H](Cc4ccccc4)N(C)C1=O)(C2)C3` [compound 304, cyclo(FLac-NMeA-PyrimAla-AbuF2-Phe2F-hL-NMeF-amBCP)] (cyclo([NMeA][Ala(pyrimidin-5-yl)][Abu(4,4-F2)][Phe(2-F)][hLeu][NMeF][X1][PhLac])), for which the pEC50 is 5.73.

Regarding `CCCC[C@@H]1NC(=O)[C@H](Cc2cncnc2)NC(=O)[C@H](C)N(C)C(=O)[C@H](Cc2ccccc2)OC(=O)C23CC(CNC(=O)[C@H](Cc4cccc(F)c4)N(C)C(=O)[C@H](CCCC)NC(=O)[C@H](Cc4ccccc4F)NC1=O)(C2)C3` [compound 174, cyclo(FLac-NMeA-PyrimAla-Nle-Phe2F-Nle-NMePhe3F-amBCP)] (cyclo([NMeA][Ala(pyrimidin-5-yl)][Nle][Phe(2-F)][Nle][NMePhe(3-F)][X1][PhLac])), the pEC50 is 6.13.

The molecule `CCCCC[C@@H]1NC(=O)[C@H](Cc2ccc(OC)cc2)NC(=O)[C@H](CC2CCC2)NC(=O)[C@H](Cc2cc[nH]c(=O)c2)NC(=O)[C@H](CCCNC(=N)N)NC(=O)[C@H](Cc2ccccc2)NC(=O)CSC[C@@](C)(C(N)=O)NC(=O)[C@H](Cc2ccccc2)N(C)C1=O` [compound 368, cyclo(F-R-SCO4Pal-cBuA-TyrOMe-Ahp-NMeF-aMeCl-ClAc)] had a pEC50 below 4.29.

`CCCC[C@@H]1NC(=O)[C@H](Cc2cncnc2)NC(=O)[C@H](C)N(C)C(=O)[C@H](Cc2ccccc2)OC(=O)C23CC(CNC(=O)[C@H](Cc4ccccc4)N(C)C(=O)[C@H](CCC(C)C)NC(=O)[C@H](Cc4ccccc4F)NC1=O)(C2)C3` [compound 132, cyclo(FLac-NMeA-PyrimAla-Nle-Phe2F-hL-NMeF-amBCP)] (cyclo([NMeA][Ala(pyrimidin-5-yl)][Nle][Phe(2-F)][hLeu][NMeF][X1][PhLac])) showed a pEC50 of 5.95.

Take `CCCC[C@@H]1NC(=O)[C@H](Cc2cccnc2)NC(=O)[C@H](CCCC(=O)N(C)C)N(C)C(=O)[C@H](Cc2ccccc2)OC(=O)C23CC(CNC(=O)[C@H](Cc4cccnc4)N(C)C(=O)[C@H](CCCC)NC(=O)[C@H](Cc4ccccc4F)NC1=O)(C2)C3` [compound 408, cyclo(FLac-hQdm-3Pal-Nle-Phe2F-Nle-NMe3Pal-amBCP)] (cyclo([3Pal][Nle][Phe(2-F)][Nle][NMe3Pal][X1][PhLac][NMeAad](NMe2))): the pEC50 is below 4.29.

For the molecule `CCCCC[C@@H]1NC(=O)[C@H](Cc2ccc(OC)cc2)NC(=O)[C@H](CC2CCC2)NC(=O)[C@H](Cc2cccnc2)NC(=O)[C@H](CCCNC(=N)N)NC(=O)[C@H](Cc2ccccc2)OC(=O)C23CC(CNC(=O)[C@H](Cc4ccccc4)N(C)C1=O)(C2)C3` [compound 211, cyclo(FLac-R-3Pal-cBuA-TyrOMe-Ahp-NMeF-amBCP)] (cyclo([PhLac]R[3Pal][Cba]Y(Me)[Ahp(2)][NMeF][X1])), the pEC50 was below 4.29.

On to `CC(C)CC[C@@H]1NC(=O)[C@H](Cc2ccccc2F)NC(=O)[C@H](CC2CC2)NC(=O)[C@H](Cc2cccnc2)NC(=O)[C@H](C)N(C)C(=O)[C@H](Cc2ccccc2)OC(=O)C23CC(CNC(=O)[C@H](Cc4cncc(F)c4)N(C)C1=O)(C2)C3` [compound 283, cyclo(FLac-NMeA-3Pal-cPrA-Phe2F-hL-NMe3Pal5F-amBCP)] (cyclo([3Pal][Ala(cPr)][Phe(2-F)][hLeu][NMe3Pal(5-F)][X1][PhLac][NMeA])), for which the pEC50 is 5.90.

The molecule `CCCCC[C@@H]1NC(=O)[C@H](Cc2ccc(OC)cc2)NC(=O)[C@H](CC2CCC2)NC(=O)[C@H](Cc2cccnc2)NC(=O)[C@H](C)N(C)C(=O)[C@H](Cc2ccccc2)NC(=O)CSC[C@@](C)(C(N)=O)NC(=O)[C@H](Cc2ccccc2)N(C)C1=O` [compound 158, cyclo(F-NMeA-3Pal-cBuA-TyrOMe-Ahp-NMeF-aMeCl-ClAc)] ({CH2CO}-F[NMeA][3Pal][Cba]Y(Me)[Ahp(2)][NMeF][αMeC]-NH2; thioether N-8) gave a pEC50 below 4.29.
